Reference: PMC5955414, “PKD1 is a potential biomarker and therapeutic target in triple-negative breast cancer” (Oncotarget, 2018)
Values belong to the compound of their own block, whether it stands above or below them.

Tests used:
PKD3 [1] = target: T1, PKD3 (Homo sapiens, UniProt O94806); parameters: method as in PMID 20497126, PMID 20442301, PMID 18829454, PMID 21617763, PMID 20444281; conditions: cited from earlier work
T1 sequence (O94806 1-890): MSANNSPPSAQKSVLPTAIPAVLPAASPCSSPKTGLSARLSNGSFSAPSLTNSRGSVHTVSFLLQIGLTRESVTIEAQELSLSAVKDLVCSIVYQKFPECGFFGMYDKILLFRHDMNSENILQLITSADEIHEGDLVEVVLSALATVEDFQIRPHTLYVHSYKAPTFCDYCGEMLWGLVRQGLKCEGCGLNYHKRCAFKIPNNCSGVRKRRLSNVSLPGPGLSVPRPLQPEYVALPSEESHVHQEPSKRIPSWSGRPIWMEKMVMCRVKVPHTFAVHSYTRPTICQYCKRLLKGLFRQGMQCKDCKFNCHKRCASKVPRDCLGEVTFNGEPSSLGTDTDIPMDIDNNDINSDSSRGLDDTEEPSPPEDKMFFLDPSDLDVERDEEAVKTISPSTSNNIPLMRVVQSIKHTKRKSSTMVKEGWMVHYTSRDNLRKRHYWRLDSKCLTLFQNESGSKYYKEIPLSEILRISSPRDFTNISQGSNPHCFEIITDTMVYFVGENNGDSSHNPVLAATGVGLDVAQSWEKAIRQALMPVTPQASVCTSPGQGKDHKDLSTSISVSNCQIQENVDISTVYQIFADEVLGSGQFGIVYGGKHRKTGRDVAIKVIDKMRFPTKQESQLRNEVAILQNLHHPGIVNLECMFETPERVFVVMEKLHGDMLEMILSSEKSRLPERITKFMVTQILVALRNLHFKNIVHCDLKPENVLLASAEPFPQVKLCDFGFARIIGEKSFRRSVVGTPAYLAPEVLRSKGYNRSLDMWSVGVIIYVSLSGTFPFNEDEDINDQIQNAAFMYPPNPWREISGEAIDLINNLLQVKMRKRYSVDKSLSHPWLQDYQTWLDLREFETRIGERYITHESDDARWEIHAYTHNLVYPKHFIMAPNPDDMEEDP

PKCα [2] = target: T2, PKCα (Homo sapiens, UniProt P17252); assay: In vitro kinase inhibitory activity, PKCα; assay type: biochemical; conditions: AB9275: at concentrations inhibiting PKD1
Protocol: (§1) Supplementary Figure 5: Specificity of the AB9275 PKD1 inhibitor. (A) Comparison of in vitro kinase inhibitory activities
(§2) between AB9275 and different PKD1 inhibitors.
(§3) CRT0066101. Other IC50s were obtained from the literature (as indicated). (B) Kinome selectivity profile of the AB9275 compound. The
(§4) CA). AB9275 was screened at 1 μM.

PKCβ [3] = target: T3, PKCβ (Homo sapiens, UniProt P05771); assay: In vitro kinase inhibitory activity, PKCβ; assay type: biochemical; conditions: AB9275: at concentrations inhibiting PKD1
T3 sequence (P05771 whole entry, species assumed): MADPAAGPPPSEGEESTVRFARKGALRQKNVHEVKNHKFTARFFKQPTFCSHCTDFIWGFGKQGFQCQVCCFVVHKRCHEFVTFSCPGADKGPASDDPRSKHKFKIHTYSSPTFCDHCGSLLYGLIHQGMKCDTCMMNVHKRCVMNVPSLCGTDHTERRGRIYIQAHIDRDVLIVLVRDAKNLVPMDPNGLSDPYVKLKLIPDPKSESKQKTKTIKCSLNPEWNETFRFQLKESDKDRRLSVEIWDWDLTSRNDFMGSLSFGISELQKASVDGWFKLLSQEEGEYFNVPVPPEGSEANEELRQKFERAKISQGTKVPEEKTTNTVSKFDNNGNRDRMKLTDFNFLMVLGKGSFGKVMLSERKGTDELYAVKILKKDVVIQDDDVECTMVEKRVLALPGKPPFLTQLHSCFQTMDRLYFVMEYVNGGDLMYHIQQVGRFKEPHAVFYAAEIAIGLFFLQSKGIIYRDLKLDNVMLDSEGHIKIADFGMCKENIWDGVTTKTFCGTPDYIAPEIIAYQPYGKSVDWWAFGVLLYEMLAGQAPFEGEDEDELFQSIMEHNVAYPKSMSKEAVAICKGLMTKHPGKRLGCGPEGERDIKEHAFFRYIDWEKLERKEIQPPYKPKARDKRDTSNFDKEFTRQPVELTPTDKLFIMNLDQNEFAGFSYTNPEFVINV
Protocol: as §1, §2, §3, §4

PKCα [4] = target: T2, PKCα; parameters: method as in PMID 20497126, PMID 20442301, PMID 18829454, PMID 21617763, PMID 20444281; conditions: cited from earlier work
PKCβ [5] = target: T3, PKCβ; parameters: method as in PMID 20497126, PMID 20442301, PMID 18829454, PMID 21617763, PMID 20444281; conditions: cited from earlier work
PKD3 [6] = target: T1, PKD3; assay: In vitro kinase inhibitory activity, PKD3; assay type: biochemical; conditions: AB9275: at concentrations inhibiting PKD1; compared with PKD1
Protocol: as §1, §2, §3, §4

[7] = test system: MCF7 chemoresistant xenografts; parameters: method as in PMID 26895471; conditions: cited from earlier work

Compound: O=C1NCCCc2c1oc1ccc(O)cc21 [CID755673]
Inhibition of PKD3 relative to PKD1 (literature) (PKD3 [1]): similarly inhibit PKD1 and PKD3

Inhibition of PKCα in vitro (PKCα [2]): strongly inhibited
Inhibition of PKCβ in vitro (PKCβ [3]): strongly inhibited
Compound: Cn1c2ccccc2c2c3c(c4c5ccccc5n(CCC#N)c4c21)CNC3=O [Gö6976]
Inhibition of PKCα (literature) (PKCα [4]): also inhibits
Inhibition of PKCβ (literature) (PKCβ [5]): also inhibits

Compound: CRT5
Inhibition of PKD3 relative to PKD1 (literature) (PKD3 [1]): similarly inhibit PKD1 and PKD3

Compound: CC[C@@H](N)CNc1ccnc(-c2cc(-c3cnn(C)c3)ccc2O)n1.Cl.Cl [CRT0066101]
Inhibition of PKD3 in vitro (PKD3 [6]): more potent against PKD3
Inhibition of PKD3 relative to PKD1 (literature) (PKD3 [1]): similarly inhibit PKD1 and PKD3
Tumor growth of MCF7 chemoresistant xenografts in vivo [7]: able to inhibit tumor growth
